Experimental data reported in BindingDB's records for doi:10.1021/bi00421a012 (Pennsylvania State University, 1988).

Molecular target: T1, Carbamoyl-phosphate synthase small chain (Escherichia coli (strain K12), UniProt P0A6F1)
T1 sequence (P0A6F1 whole entry): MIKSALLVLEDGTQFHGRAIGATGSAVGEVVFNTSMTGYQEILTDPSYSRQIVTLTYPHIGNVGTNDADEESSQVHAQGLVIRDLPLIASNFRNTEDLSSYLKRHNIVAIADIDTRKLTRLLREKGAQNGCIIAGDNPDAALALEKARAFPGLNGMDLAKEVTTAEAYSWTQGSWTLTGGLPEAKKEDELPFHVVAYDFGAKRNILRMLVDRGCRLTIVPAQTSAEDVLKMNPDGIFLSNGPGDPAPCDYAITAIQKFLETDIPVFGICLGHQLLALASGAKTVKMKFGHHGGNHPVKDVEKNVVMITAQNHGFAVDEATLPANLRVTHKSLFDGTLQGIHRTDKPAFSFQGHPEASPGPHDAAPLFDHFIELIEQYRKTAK
Conditions: pH 7.5; 25 °C

Kd: 33 µM
Compound: O=P(O)(O)OC[C@H]1O[C@@H](n2cnc3c2ncn2ccnc32)[C@H](O)[C@@H]1O [[(2R,3S,4R,5R)-3,4-dihydroxy-5-imidazo[2,1-f]purin-3-yloxolan-2-yl]methyl dihydrogen phosphate]
